Results taken from ChEMBL document CHEMBL5360641, “4'-Ethynyl-2'-deoxy-2'-β-fluoro-2-fluoroadenosine: A Highly Potent and Orally Available Clinical Candidate for the Treatment of HIV-1 Infection” (J Med Chem, 2023).

Legend:
[1] = system: Human immunodeficiency virus 1; experiment: Antiviral activity against HIV1 VSV-G pseudotyped virus infected in human HEK293T cells assessed as inhibition of viral growth preincubated for 3 hrs followed by washout and further incubated with compound for 72 hrs by luciferase assay; type: functional, organism-based; conditions: Human immunodeficiency virus 1, HEK-293T
[2] = AUC (0 to t) in male Sprague-Dawley rat at 30 mg/kg, IG measured at 0.5 hrs LC-MS/MS analysis; type: ADME, organism-based; design: dose 30 mg/kg, time 0.5 hrs, route ig; conditions: in vivo, po
[3] = system: Human immunodeficiency virus 1; experiment: Antiviral activity against HIV1 IIIB infected in human C8166 cells assessed as inhibition of syncytia formation incubated for 3 to 7 days by syncytia assays; type: functional, organism-based; conditions: Human immunodeficiency virus 1, IIIB
[4] = Toxicity in Sprague-Dawley rat assessed as effect on blood biochemistry at 10 to 30 mg/kg, po administered once daily for 4 weeks and measured after 24 hrs post last dose; type: organism-based; conditions: in vivo, 696 h, dose 10-30 mg/kg
[5] = AUC (0 to t) in female Sprague-Dawley rat at 30 mg/kg, IG measured at 0.5 hrs LC-MS/MS analysis; type: ADME, organism-based; design: time 0.5 hrs, dose 30 mg/kg, route ig; conditions: in vivo, po
[6] = AUC (0 to t) in female Sprague-Dawley rat at 10 mg/kg, IG measured at 0.5 hrs LC-MS/MS analysis; type: ADME, organism-based; design: time 0.5 hrs, dose 10 mg/kg, route ig; conditions: in vivo, po
[7] = Drug uptake in Beagle dog PBMC cells assessed as ((2R,3R,4S,5R)-5-(6-amino-2-fluoro-9H-purin-9-yl)-2-ethynyl-4-fluoro-3-hydroxytetrahydrofuran-2-yl)methyl tetrahydrogen triphosphate formation at 6 to 12 mg/kg, po measured at 2 to 168 hrs by LC-MS/MS analysis; type: ADME, organism-based, Canis lupus familiaris; conditions: in vivo, dose lower 6 mg/kg, time lower 2 hrs, dose upper 12 mg/kg, time upper 168 hrs
[8] = AUC (0 to t) in female Sprague-Dawley rat at 30 mg/kg, IG measured at 24 hrs LC-MS/MS analysis; type: ADME, organism-based; design: dose 30 mg/kg, time 24 hrs, route ig; conditions: in vivo, po
[9] = Half life in Sprague-Dawley rat at 5 mg/kg, iv measured upto 24 hrs by LC-MS/MS analysis; type: ADME, organism-based; conditions: in vivo
[10] = Acute toxicity in Sprague-Dawley rat assessed as effect on heart damage at 500 to 2000 mg/kg, IG measured on day 15; type: organism-based; conditions: in vivo, po, 360 h, dose 500-2000 mg/kg, time 15 day
[11] = AUC (0 to t) in Sprague-Dawley rat at 5 mg/kg, iv measured upto 24 hrs by LC-MS/MS analysis; type: ADME, organism-based; design: dose 5 mg/kg, time < 24 hrs, route iv; conditions: in vivo
[12] = system: Human immunodeficiency virus 1; experiment: Antiviral activity against HIV1 4755-5 infected in human C8166 cells assessed as inhibition of viral replication by measuring reduction in p24 antigen level incubated for 3 to 7 days by ELISA analysis; type: functional, organism-based; conditions: Human immunodeficiency virus 1, 4755-5, C8166
[13] = Acute toxicity in Sprague-Dawley rat assessed as effect on brain damage at 500 to 2000 mg/kg, IG measured on day 15; type: organism-based; conditions: in vivo, po, 360 h, dose 500-2000 mg/kg, time 15 day
[14] = system: Human immunodeficiency virus 1; experiment: Antiviral activity against HIV1 A17 infected in human C8166 cells assessed as inhibition of viral replication by measuring reduction in p24 antigen level incubated for 3 to 7 days by ELISA analysis; type: functional, organism-based; conditions: Human immunodeficiency virus 1, A17, C8166
[15] = system: Human immunodeficiency virus 1; experiment: Antiviral activity against HIV-1 harboring integrase G140S/Q148H double mutant infected in human TZM-bl cells assessed as inhibition of viral replication incubated for 3 to 7 days by luciferase assay; type: functional, organism-based; conditions: Human immunodeficiency virus 1, TZM-bl
[16] = Selectivity index, ratio of CC50 for cytotoxicity against HEK293T cells assessed as reduction in cell viability by MTT assay to EC50 for antiviral activity against HIV1 VSV-G pseudotyped virus infected in human HEK293T cells assessed as inhibition of viral growth; type: toxicity, cell-based; conditions: read-out: Ratio CC50/EC50
[17] = Apparent oral clearance in Sprague-Dawley rat at 2.5 mg/kg, IG measured upto 24 hrs by LC-MS/MS analysis; type: ADME, organism-based; conditions: in vivo
[18] = system: Human immunodeficiency virus 1; experiment: Antiviral activity against HIV1 NL4-3 infected in human C8166 cells assessed as inhibition of viral replication by measuring reduction in p24 antigen level incubated for 3 to 7 days by ELISA analysis; type: functional, organism-based; conditions: Human immunodeficiency virus 1, NL4-3, C8166
[19] = Tmax in Sprague-Dawley rat at 5 mg/kg, IG measured upto 24 hrs by LC-MS/MS analysis; type: ADME, organism-based; conditions: in vivo, po
[20] = Toxicity in Sprague-Dawley rat assessed as death at 10 to 30 mg/kg, po administered once daily for 4 weeks and measured after 24 hrs post last dose; type: organism-based; conditions: in vivo, 696 h, dose 10-30 mg/kg
[21] = system: Human immunodeficiency virus 1; experiment: Antiviral activity against HIV1 WAN infected in human PBMC assessed as inhibition of viral replication by measuring reduction in p24 antigen level incubated for 3 to 7 days by ELISA analysis; type: functional, organism-based; conditions: Human immunodeficiency virus 1, WAN
HEK-293T = experiment: Cytotoxicity against HEK293T cells assessed as reduction in cell viability upto 100 uM MTT assay; type: toxicity, cell-based; conditions: human
[22] = AUC (0 to t) in male Sprague-Dawley rat at 100 mg/kg, IG measured at 24 hrs LC-MS/MS analysis; type: ADME, organism-based; design: time 24 hrs, dose 100 mg/kg, route ig; conditions: in vivo, po
[23] = Acute toxicity in Sprague-Dawley rat assessed as effect on food intake at 500 to 2000 mg/kg, IG measured for 14 days; type: organism-based; conditions: in vivo, po, 336 h, dose 500-2000 mg/kg, time 14 day
[24] = system: Human immunodeficiency virus 1; experiment: Antiviral activity against HIV-1 harboring protease V82F/[…] double mutant infected in human C8166 cells assessed as inhibition of viral replication by measuring reduction in p24 antigen level incubated for 3 to 7 days by ELISA analysis; type: functional, organism-based; conditions: Human immunodeficiency virus 1, C8166
[25] = Acute toxicity in Sprague-Dawley rat assessed as death at 500 to 2000 mg/kg, IG measured for 14 days; type: organism-based; conditions: in vivo, po, 336 h, dose 500-2000 mg/kg, time 14 day
[26] = Acute toxicity in Sprague-Dawley rat assessed as effect on kidney damage at 500 to 2000 mg/kg, IG measured on day 15; type: organism-based; conditions: in vivo, po, 360 h, dose 500-2000 mg/kg, time 15 day
[27] = AUC (0 to t) in Sprague-Dawley rat at 10 mg/kg, IG measured upto 24 hrs by LC-MS/MS analysis; type: ADME, organism-based; design: dose 10 mg/kg, time < 24 hrs, route ig; conditions: in vivo, po
[28] = Cmax in Sprague-Dawley rat at 5 mg/kg, IG measured upto 24 hrs by LC-MS/MS analysis; type: ADME, organism-based; design: time < 24 hrs, dose 5 mg/kg, route ig; conditions: in vivo, po
[29] = Acute toxicity in Sprague-Dawley rat assessed as effect on lung damage at 500 to 2000 mg/kg, IG measured on day 15; type: organism-based; conditions: in vivo, po, 360 h, dose 500-2000 mg/kg, time 15 day
[30] = Cmax in Sprague-Dawley rat at 5 mg/kg, iv measured upto 24 hrs by LC-MS/MS analysis; type: ADME, organism-based; design: time < 24 hrs, dose 5 mg/kg, route iv; conditions: in vivo

C#C[C@]1(CO)O[C@@H](n2cnc3c(N)nc(F)nc32)[C@@H](F)[C@@H]1O
EC50 [1]: 0.9 nM
AUC(0-t) at 0.5 h [2]: 28200 ng·h/mL
EC50 [3]: 3.51 nM
Activity [4]: Non-Toxic
AUC(0-t) at 0.5 h [5]: 22800 ng·h/mL
AUC(0-t) at 0.5 h [6]: 7020 ng·h/mL
Drug metabolism [7]: Metabolite_Detected
AUC(0-t) at 24 h [8]: 26500 ng·h/mL
half-life [9]: 1.8 h
Activity [10]: Non-Toxic
AUC(0-t) at 24 h [11]: 5290 ng·h/mL
EC50 [12]: 32.4 nM
Activity [13]: Non-Toxic
EC50 [14]: 1.53 nM
EC50 [15]: 2.84 nM
selectivity ratio [16]: > 111000
CL/F [17]: 24.8 mL/min/kg
EC50 [18]: 1.18 nM
Tmax [19]: 0.56 h
Activity [20]: Non-Toxic
EC50 [21]: 14.4 nM
Activity (HEK-293T): Non-Toxic
AUC(0-t) at 24 h [22]: 85800 ng·h/mL
Activity [23]: Non-Toxic
EC50 [24]: 6.75 nM
Activity [25]: Non-Toxic
Activity [26]: Non-Toxic
AUC(0-t) at 24 h [27]: 8660 ng·h/mL
Cmax [28]: 1230 ng/mL
Activity [29]: Non-Toxic
Cmax [30]: 10200 ng/mL
